Experimental data as given in ChEMBL document CHEMBL1201862, “PubChem BioAssay data set” (2004).
Blank lines part the entries; values can stand above or below the compound they belong to. The source made the active and inactive calls.

What was measured:
[1] = molecular target: T1, Oxysterols receptor LXR-beta (Homo sapiens, UniProt P55055); assay type: functional, cell-based;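 note: Cell-based luminescence dose-response assay of agonist activity at LXR, run as a confirmatory counterscreen to a daf-12 agonist screen; HEK293 cells with Gal4-LXR fusion and GAL4-driven luciferase reporter; agonist potency from rising luciferase signal of a Gal4-LXR reporter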
T1 sequence (P55055 whole entry): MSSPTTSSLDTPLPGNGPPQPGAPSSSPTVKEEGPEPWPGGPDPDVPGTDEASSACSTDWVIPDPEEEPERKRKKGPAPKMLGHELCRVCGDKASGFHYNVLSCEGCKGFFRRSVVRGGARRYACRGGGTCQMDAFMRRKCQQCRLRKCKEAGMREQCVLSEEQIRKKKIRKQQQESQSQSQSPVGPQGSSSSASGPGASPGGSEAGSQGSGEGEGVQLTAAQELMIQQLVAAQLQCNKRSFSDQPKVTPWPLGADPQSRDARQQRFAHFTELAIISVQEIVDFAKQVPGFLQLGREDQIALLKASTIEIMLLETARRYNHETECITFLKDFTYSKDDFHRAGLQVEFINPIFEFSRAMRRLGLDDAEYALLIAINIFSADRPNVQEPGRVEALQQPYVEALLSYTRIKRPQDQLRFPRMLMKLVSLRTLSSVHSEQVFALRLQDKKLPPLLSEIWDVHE

Kallikrein-7 = Kallikrein-7 (Homo sapiens, UniProt P49862); assay: Fluorescence Intensity-based biochemical primary high throughput dose response assay to identify activators of kallikrein-7 (K7) zymogen.
Sequence of Kallikrein-7 (P49862 whole entry): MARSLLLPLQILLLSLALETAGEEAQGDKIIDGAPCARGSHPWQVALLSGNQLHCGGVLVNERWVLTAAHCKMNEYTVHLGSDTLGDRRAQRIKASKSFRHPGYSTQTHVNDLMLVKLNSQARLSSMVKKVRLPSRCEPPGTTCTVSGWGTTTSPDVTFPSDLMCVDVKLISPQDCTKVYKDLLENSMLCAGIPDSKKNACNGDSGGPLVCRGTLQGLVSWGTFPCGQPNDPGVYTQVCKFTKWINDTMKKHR

[2] = molecular target: T2, Ubiquitin carboxyl-terminal hydrolase BAP1 (Homo sapiens, UniProt Q92560); assay: BAP1 deubiquitinase inhibitors, dose response, biochemical (AID 714); assay type: functional
T2 sequence (Q92560 whole entry): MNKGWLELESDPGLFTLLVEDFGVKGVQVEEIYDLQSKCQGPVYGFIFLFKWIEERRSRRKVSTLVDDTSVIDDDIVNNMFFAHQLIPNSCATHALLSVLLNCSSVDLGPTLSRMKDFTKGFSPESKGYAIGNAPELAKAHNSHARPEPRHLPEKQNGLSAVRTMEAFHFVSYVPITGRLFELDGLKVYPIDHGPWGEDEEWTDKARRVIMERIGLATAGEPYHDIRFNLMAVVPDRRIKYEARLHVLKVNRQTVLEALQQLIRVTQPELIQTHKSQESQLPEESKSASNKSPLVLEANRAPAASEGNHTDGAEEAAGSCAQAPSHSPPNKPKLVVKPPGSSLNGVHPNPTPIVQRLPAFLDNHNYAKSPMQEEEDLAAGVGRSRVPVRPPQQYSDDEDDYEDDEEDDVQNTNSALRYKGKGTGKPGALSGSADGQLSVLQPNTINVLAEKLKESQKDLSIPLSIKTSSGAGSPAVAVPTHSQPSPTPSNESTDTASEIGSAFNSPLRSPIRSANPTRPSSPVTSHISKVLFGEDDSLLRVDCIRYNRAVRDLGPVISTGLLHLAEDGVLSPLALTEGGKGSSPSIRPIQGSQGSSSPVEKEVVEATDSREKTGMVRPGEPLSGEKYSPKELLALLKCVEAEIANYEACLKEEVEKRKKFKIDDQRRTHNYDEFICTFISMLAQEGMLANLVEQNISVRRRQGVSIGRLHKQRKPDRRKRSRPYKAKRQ

[3] = HepG2 cell cytotoxicity, dose response, cytotoxicity control, cherry-picked samples (AID 1159577); assay type: functional, cell-based
[4] = P. falciparum Dd2 growth inhibitors, dose response, SYBR Green, cherry-picked samples (AID 1159567); assay type: functional, cell-based
[5] = P. falciparum ATP4 D1247Y mutant growth inhibitors, dose response, NITD609-resistant line, SYBR Green, dry powder (AID 1159571); assay type: functional, cell-based;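 note: parasites synchronized at ring stage by sorbitol before testing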
[6] = P. falciparum Dd2 growth inhibitors, dose response, SYBR Green, dry powder samples (AID 1159566); assay type: functional, cell-based;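 note: potency for growth inhibition with lower SYBR green DNA signal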
[7] = HepG2 cell cytotoxicity, dose response, cytotoxicity control, plate reader, dry powder samples (AID 1159569); assay type: functional, cell-based;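 note: inhibitor potency with signal falling toward the positive control level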
[8] = P. falciparum 3D7-ScDHODH growth inhibitors, dose response, SYBR Green, dry powder samples (AID 1159570); assay type: functional, cell-based;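 note: parasite growth measured after 72 hours of compound exposure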

SMILES: COc1cccc(-c2nc(-c3ccccc3)no2)c1
EC50 [1]: > 67.6 µM (inactive) | EC50 (cells): > 67.6 µM (inactive)

EC50 (Kallikrein-7): > 69.5 µM (inactive)
SMILES: CCOc1ccc(-c2cc(C(=O)N3CCN(C)CC3)c3ccccc3n2)cc1

IC50 [2]: 33.9 µM (not active)
SMILES: CCCO/C(O)=C1\C(C)=NC2=C(C(=O)CCC2)C1c1cccc(OC)c1OC (centres undefined)

SMILES: CC(C)CC#Cc1ccc([C@@H]2[C@@H](CO)N3CCCCN(S(=O)(=O)Cc4ccccc4)C[C@@H]23)cc1
AC50 [3]: > 39 µM (inactive) | AC50 [4]: 5.76 µM (active)

SMILES: COc1ccc2c3c([nH]c2c1)[C@H](CO)N(C(=O)C1CCCC1)CC31CCN(Cc2cccc(F)c2)CC1
AC50 [3]: 9.75 µM (active) | AC50 [4]: 3.49 µM (active)

SMILES: COc1cccc(NC(=O)N(C)C[C@@H]2Oc3cc(C#Cc4ccccc4)ccc3S(=O)(=O)N([C@H](C)CO)C[C@@H]2C)c1
AC50 [4]: 1.19 µM (active) | AC50 [5]: 0.74 µM (active) | AC50 [6]: 0.539 µM (active) | AC50 [7]: > 100 µM (inactive) | AC50 [8]: 0.975 µM (active)

SMILES: COc1ccc2c3c(n(C)c2c1)[C@H](CO)NCC31CCN(Cc2ccc(-c3ccccn3)cc2)CC1
AC50 [3]: 20.3 µM (active) | AC50 [4]: 0.322 µM (active) | AC50 [5]: 0.222 µM (active) | AC50 [6]: 0.135 µM (active) | AC50 [7]: 20 µM (active) | AC50 [8]: 0.265 µM (active)
